# Measured values reported in US12318388B2, “Pyrimidine derivatives for prevention and treatment of gram-negative bacterial infection, contamination and fouling” (UNIVERSITÉ DE LIÈGE, priority 2019, dated 2025).
# How the values were obtained:
# [1] = system: Escherichia coli (ATCC 8739); assay: Minimal Inhibitory Concentration (MIC) on Escherichia coli with or without PMBN, OD600 after O/N growth; assay type: cell-based; details: for MIC / Minimal inhibitory concentration With PMBN: E. coli (ATCC 8739); for MIC: molecule alone; for Minimal inhibitory concentration With PMBN: together with PMBN at 40 μg/ml
# Method: The Minimal Inhibitory Concentration (MIC) of molecules 2329, 2412, 2452 and 2461 together with polymyxin B nonapeptide (PMBN) was determined on Escherichia coli (ATCC 8739) according to EUCAST (European Committee on Antimicrobial Susceptibility Testing) recommendations.
# (§1) Briefly, a single colony grown on a Luria-Bertani Agar (LB) plate was resuspended and cultured in the LB medium overnight (O/N) in aerobic conditions (37° C. with 220 rpm shaking), next day a 1:50 inoculum in Mueller-Hinton broth (MHB) was incubated in aerobic conditions for 1h30 (OD=0.08-0.1) and an inoculum of 1:300 dilution, corresponding to 3×10^6 CFU/ml, was incubated in presence or absence of different concentrations of the molecules in 1% DMSO (vehicle) with or without Polymyxin B nonapeptide (PMBN) at 40 μg/ml. After O/N growth the OD of each culture was measured at 600 nm in a spectrophotometer (OD600). The MIC represents the concentration at which there is no visible growth of bacteria, i.e. ΔOD at 600 nm equal to zero wherein ΔOD is the difference between the resulting optical density (OD) with the molecule together with PMBN, and the optical density (OD) of the blank (blank is the medium) alone.
# (§2) A single colony grown on an Lurian-Bertani (LB) agar plate is resuspended and cultured in LB medium overnight (O/N) in aerobic conditions (37° C. with 220 rpm shaking), next day a 1:50 inoculum in Mueller-Hinton broth (MHB) is incubated in aerobic conditions for 1h30 (OD=0.08-0.1) and an inoculum of 1:300 dilution, corresponding to 3×10^6 CFU/ml, is incubated in presence or absence of different concentrations of the tested molecules in 1% DMSO (vehicle) with or without PMBN at 40 μg/ml. After O/N growth the OD of each culture was measured at 600 nm (OD600) in a spectrophotometer (Victor 3-Perkin Elmer). The MIC represents the concentration at which there is no visible growth of bacteria, i.e. ΔOD at 600 nm equal to zero wherein ΔOD is the difference between the resulting optical density (OD) with the molecule together with PMBN, and the optical density (OD) of the blank (blank is the medium) alone.
# as §1, with “cultured in LB medium” for “cultured in the LB medium”, “of the above-mentioned molecules in” for “of the molecules in”
# as §2, with “a Luria-Bertani” for “an Lurian-Bertani”, “above-mentioned pyrazolopyrimidine molecule” for “tested molecules”, “alone. […]” for “alone.”
# [2] = system: Pseudomonas aeruginosa (ATCC27853); assay: Minimal Inhibitory Concentration (MIC) on Pseudomonas aeruginosa with or without PMBN; assay type: cell-based; details: Pseudomonas aeruginosa (ATCC 27853); for Minimal inhibitory concentration without PMBN: molecule alone; for Minimal inhibitory concentration With PMBN: together with PMBN at 0.5 μg/ml
# Method: A single colony grown on an tryptic soy agar plate is resuspended and cultured in tryptic soy broth medium overnight (O/N) in aerobic conditions (37° C. with 220 rpm shaking), next day a 1:100 inoculum in Mueller-Hinton broth (MHB) is incubated in aerobic conditions for 3h (OD=0.5-0.6) and an inoculum of 1:1000 dilution, corresponding to 1-3×10^5 CFU/ml, is incubated in presence or absence of different concentrations of the tested molecules in 1% DMSO (vehicle) with or without PMBN at 0.5 μg/ml. After 28-30h growth the OD of each culture was measured at 600 nm (OD600) in a spectrophotometer (Victor 3-Perkin Elmer). The MIC represents the concentration at which there is no visible growth of bacteria, i.e. ΔOD at 600 nm equal to zero (blank is the medium alone) wherein ΔOD is the difference between the resulting optical density (OD) with the molecule together with PMBN, and the optical density (OD) of the blank (blank is the medium) alone.
# [3] = 100 μM together with 40 μg/ml PMBN
# [4] = with 10 to 50 µg/ml PMBN, particularly 40 μg/ml
Structure (SMILES),MIC [1] [µM],Minimal inhibitory concentration With PMBN [1] [µM],"MIC ([1]; Escherichia coli, ATCC8739) [µM]",Minimal inhibitory concentration without PMBN [2] [µM],Minimal inhibitory concentration With PMBN [2] [µM],Antibacterial activity against E. coli (ATCC8739) [1],"OD600 nm after O/N growth of Escherichia coli (FIG. 4) [1, 3]","Activity against Escherichia coli (ATCC 8739), conclusion [1, 4]",OD600 nm after O/N growth of Escherichia coli (FIG. 4) ([1]; 20 μM with 40 μg/ml PMBN),"Activity against Escherichia coli (ATCC 8739), conclusion ([1]; with 40 μg/ml PMBN)",OD600 nm after O/N growth of Escherichia coli (FIG. 4) ([1]; 50 μM with 40 μg/ml PMBN)
"C=CCn1cnc2c(N[C@@H]3C[C@H]3c3ccc(F)c(F)c3)nc(SCCC)nc21 [molecule 2412, 9-allyl-N-((1R,2S)-2-(3,4-difluorophenyl)cyclopropyl)-2-(propylthio)-9H-purin-6-amine]",>100,50,> 100,>100,50,,,,,,
"CCCCOc1nc(NCc2ccccc2)c2ncn(Cc3c(F)ccc(C)c3F)c2n1 [molecule 39z″, N-Benzyl-2-butoxy-9-(2,6-difluoro-3-methylbenzyl)-9H-purin-6-amine, reference compound]",,> 100,,,,no antibacterial activity,did not differ from vehicle control,no antibacterial activity,,,
"CCCCCOc1nc(NCc2ccccc2)c2ncn(Cc3c(F)ccc(C)c3F)c2n1 [molecule 40z″, N-benzyl-9-(2,6-difluoro-3-methylbenzyl)-2(pentyloxy)-9H-purin-6-amine, reference compound]",,> 100,,,,no antibacterial activity,did not differ from vehicle control,no antibacterial activity,,,
"CCCSc1nc(N[C@@H]2C[C@H]2c2ccc(F)c(F)c2)c2ncn([C@@H]3C[C@H](O)[C@@H](O)[C@H]3O)c2n1 [molecule 2461, (1S,2R,3S,4R)-4-(6-(((1R,2S)-2-(3,4-difluorophenyl)cyclopropyl)amino)-2-(propylthio)-9H-purin-9-yl)cyclopentane-1,2,3-triol]",>100,10,> 100,>100,50,,,,killed all bacteria,bactericidal activity,
"CCCCSc1nc(NCc2c(F)ccc(C)c2F)c2ncn(Cc3c(F)ccc(C)c3F)c2n1 [molecule 41z″, 2-(Butylthio)-N,9-bis(2,6-difluoro-3-methylbenzyl)-9H-purin-6-amine, reference compound]",,> 100,,,,no antibacterial activity,did not differ from vehicle control,no antibacterial activity,,,
"CCn1cnc2c(N[C@@H]3C[C@H]3c3ccc(F)c(F)c3)nc(SC)nc21 [molecule 2511, N-((1R,2S)-2-(3,4-difluorophenyl)cyclopropyl)-9-ethyl-2-(methylthio)-9H-purin-6-amine]",>100,50,> 100,,,,,,,bactericidal activity,killed all bacteria
"CCCCOc1nc(NC2CC2)c2ncn(Cc3c(F)ccc(C)c3F)c2n1 [molecule 38z″, 2-Butoxy-N-cyclopropyl-9-(2,6-difluoro-3-methylbenzyl)-9H-purin-6-amine, reference compound]",,> 100,,,,no antibacterial activity,did not differ from vehicle control,no antibacterial activity,,,
"CCSc1nc(N[C@@H]2C[C@H]2c2ccc(F)c(F)c2)c2ncn(C)c2n1 [molecule 2525, N-((1R,2S)-2-(3,4-difluorophenyl)cyclopropyl)-2-(ethylthio)-9-methyl-9H-purin-6-amine]",>100,50,> 100,,,,,,,bactericidal activity,killed all bacteria
"C#CCn1cnc2c(N[C@@H]3C[C@H]3c3ccc(F)c(F)c3)nc(SCCC)nc21 [molecule 2452, N-((1R,2S)-2-(3,4-difluorophenyl)cyclopropyl)-9-(prop-2-yn-1-yl)-2-(propylthio)-9H-purin-6-amine]",>100,10,> 100,>100,50,,,,,,
"CSc1nc(N[C@@H]2C[C@H]2c2ccc(F)c(F)c2)c2cnn(C)c2n1 [molecule 2539, N-((1R,2S)-2-(3,4-difluorophenyl)cyclopropyl)-1-methyl-6-(methylthio)-1H-pyrazolo[3,4-d]pyrimidin-4-amine]",>100,25,> 100,,,,,,,bactericidal activity,killed all bacteria
"CCCCSc1nc(N[C@@H]2C[C@H]2c2ccc(F)c(F)c2)c2ncn(C)c2n1 [molecule 2833, 2-(butylthio)-N-((1R,2S)-2-(3,4-difluorophenyl)cyclopropyl)-9-methyl-9H-purin-6-amine]",>100,90,> 100,,,,,,,,
